Reference: patent US12036237B2, “Bromide source for use in treating autism spectral disorder” (INSERM (INSTITUT NATIONAL DE LA SANTE ET DE LA RECHERCHE …, priority 2016, dated 2024)
“Also recorded” adds a separate entry of the source.

Legend:
[1] = tested on: Oprm1−/− mice; test: Three-chamber social novelty preference test; conditions: bromide 125, 250, 500 mg/kg i.p. daily vs saline
[2] = tested on: Oprm1−/− mice; test: Motor stereotypies scoring
[3] = tested on: Oprm1−/− mice; test: Marble burying test; conditions: bromide 125, 250, 500 mg/kg i.p. daily
[4] = Example 2, Oprm1 wild-type and mutants, bromide 250, 500 mg/kg
[5] = Example 2, Oprm1 wild-type and mutants, bromide 250, 500 mg/kg, listed as Bromide
[6] = Example 2, bromide 250, 500 mg/kg
[7] = Oprm1−/− mice, bromide 125, 250, 500 mg/kg i.p. daily
[8] = all animals, bromide 125, 250, 500 mg/kg i.p. daily

[Br-].[Na+] [bromide, Sodium bromide]
difference (mouse over toy) in nose (close) contact duration [1]: restored difference | difference (mouse over toy) in number of nose (close) contacts [1]: restored difference | difference (mouse over toy) in time spent in nose (close) contact [1]: restored difference | difference (preference for the mouse over the toy) in time spent in compartments [1]: restored difference | social preference (overall) [1]: restored social preference; also recorded: increased social preference; also recorded: restored preference for the living mouse over the toy | number of grooming episodes [2, 4]: increased grooming episodes in wild-type (WT) animals without effects in mu opioid receptor knockouts | number of head shakes [2, 4]: increased the number of head shakes in control mice to the level of mutants | number of grooming episodes [2, 5]: increased the number of grooming episodes and male and female wild-type mice, but not in mutants | number of head shakes [2, 5]: increased the number of head shakes in male and female wild-type mice, not in mutants | motor stereotypies (overall) ([2]; Example 2, Oprm1−/− mice, bromide 250, 500 mg/kg): little effect | time spent burying ([2]; Example 2, all treated animals, bromide 250, 500 mg/kg): decreased | circling behavior [2, 6]: little effect | number of burying episodes and their duration [2, 6]: did not modify | circling behavior ([2]; Example 2, bromide 250, 500 mg/kg, listed as Bromide): no effect | number of rearing episodes ([2]; Example 2, males since 250 mg/kg, females at 500 mg/kg only): increased the number of rearing episodes in wild-type and not knockout animals | number of grooming episodes ([2]; Oprm1−/− and wild-type, bromide 125, 250, 500 mg/kg i.p. daily): dose-dependently increased the number of grooming episodes, but in wild-type animals only; also recorded: increased grooming occurrence in wild-type animals only | motor stereotypies (shakes and circling), overall [2, 7]: efficiently reduce; also recorded: demonstrated efficacy in reducing; also recorded: significant decrease | number of circling episodes [2, 7]: normalized | number of circling episodes ([2]; Oprm1−/− mice, bromide 125, 250, 500 mg/kg i.p. daily, listed as Bromide): decreased | number of shakes ([2]; Oprm1−/− mutant mice, bromide 125, 250, 500 mg/kg i.p. daily): reduced their occurrence | number of shakes ([2]; Oprm1−/− mutant mice, bromide 125, 250, 500 mg/kg i.p. daily, listed as Bromide): decreased | number of rearing episodes ([2]; all animals (Oprm1−/− and wild-type), bromide 125, 250, 500 mg/kg i.p. daily): increased | number of burying episodes [2, 8]: dose-dependently reduced; also recorded: dose dependently reduced | time spent burying [2, 8]: dose-dependently reduced | number of shakes ([2]; wild-type (Oprm1+/+) mice, bromide 125, 250, 500 mg/kg i.p. daily): dose-dependently increased | number of shakes ([2]; wild-type (Oprm1+/+) mice, bromide 125, 250, 500 mg/kg i.p. daily, listed as Bromide): increased | number of marbles buried [3]: reduced; also recorded: diminished
